# Patent US20070117770A1, “Human ribosomal DNA (rDNA) and ribosomal RNA (rRNA) nucleic acids and uses thereof” (Cylene Pharmaceuticals, Inc., priority 2005, published 2007)
# Experiments:
# [1] = molecular target: T1, nucleolin/nucleic acid ligand (Homo sapiens, UniProt P19338); assay: EMSA, interference with nucleolin/nucleic acid ligand interactions (ligands derived from human ribosomal DNA); format: binding
# T1 construct: without the N-terminal acidic stretches domain
# Method: (§1) The following assays assessed effects of compounds on interactions between nucleolin and nucleic acid ligands capable of forming quadruplex (QP) and hairpin (HP) secondary structures. Nucleic acid ligands tested were a cMyc QP DNA having nucleotide sequence 5′-[…]-3′ (SEQ ID NO: 176) and a HP pre-rRNA region to which nucleolin binds, having the sequence 5′-[…]-3′ (SEQ ID NO: 177). In the assays, recombinant nucleolin (˜250 nM), which was fused to maltose binding protein and had the sequence under accession number NM_005381 without the N-terminal acidic stretches domain, was incubated with each of the two ^32P-labeled nucleic acid ligands (10 or 250 nM). Nucleolin and the nucleic acid ligand were incubated in the presence or absence of a test compound of Formula A-1, B-1, C-6 or C-7 in an incubation buffer (12.5 mM Tris, pH 7.6, 60 mM KCl, 1 mM MgCl2, 0.1 mM EDTA, 1 mM DTT, 5% glycerol, 0.1 mg/ml BSA) for 30 minutes at room temperature. Structures for A-1 and B-1 are shown above and structures for C-6 and C-7 are shown hereafter: [drawing 17] The resulting complexes were separated on a 6% DNA retardation gel using 0.5× TBE with 20 mM KCl as a running buffer (i.e., electrophoresis mobility shift assay (EMSA)).
# The assay also was conducted using nucleic acid ligands derived from human ribosomal DNA. Sequences of these nucleic acids are shown in the preceding example. […]
# cells = assay: Cell cycle progression (propidium iodide, flow cytometry); format: cell-based; conditions: various concentrations, varying amounts of time
# Method: (§2) In assays for determining cell cycle progression effects, cells were harvested and single cell suspensions were prepared in buffer (e.g. PBS +2% FBS; PBS+0.1% BSA). Cells were washed twice and resuspend at 1-2×10^6 cells/ml. One ml cells was aliquotted in a 15 ml polypropylene, V-bottomed tube and 3 ml cold absolute ethanol was added. Cells were fixed for at least one hour at 4° C. Fixed cells were washed twice in PBS and one ml of propidium iodide staining solution (3.8 mM sodium citrate, 50 ug/ml propidium iodide in PBS) was added to each cell pellet and mixed well. Fifty microliters of an RNase A stock solution ([…] RNase A boiled for 5 minutes and aliquoted and stored frozen at −20° C.) was added and the resulting mixture was incubated for 3 hours at 4° C. Samples were stored at 4° C. until analyzed by flow cytometry.
# rRNA synthesis, HCT-116 = assay: PCR assay of rRNA synthesis from 45S rDNA (5' ETS probe); format: cell-based; conditions: various concentrations; two hour or four hour incubation (FIGS. 4A, 4B)
# Method: Assays were conducted to determine the effects of compounds on rRNA synthesis from 45S rDNA. In particular, compound A-1 at various concentrations was incubated with cells and tested for an effect on rRNA synthesis after a two hour or four hour incubation with the compound. Synthesized rRNA was quantified by a polymerase chain reaction (PCR) assay. A primer/probe set was designed using Primer Express software and synthesized by Applied Biosystems. The 5′ ETS Probe utilized had the following sequence (@ its 3′ end): 6FAM-TTG ATC CTG CCA GTA GC-MGBNFQ (SEQ ID NO:227). The primer sequences were as follows:
# Mix • 1 ug RNA • 2.5 ul 10× Taq Man buffer • 5.5 ul 25 mM MgCl2 • 5 ul of a mix of dNTP (500 uM each) • 1.2 ul random hexamer primer (2.5 uM stock) • 0.5 ul RNase inhibitor (0.4 units/ul) • 0.6 ul Reverse Transcriptase (1.2 units/ul) • bring to 25 ul total volume with water
# Mix • 5 ul Reverse Transcriptase reaction product • 12.5 ul 2×PCR mix • 1 uM forward primer • 1 uM reverse primer • 0.5 uM Taq Man probe • 500 nM Rox • Adjust to 25 ul final volume with water
# PCR cycles • 95 degrees C. 1 minute • 40 cycles of • 95 degrees C. 15 seconds • 60 degrees C. 1 minute.
# Fluorescence of digested label was detected and quantified. […] The effect of other compounds on rRNA synthesis also were assessed in the assay, and provided in the table hereafter are IC50 values of selected compounds pertaining to rRNA synthesis and cMYC RNA synthesis.
# [2] = system: mixed-parallel quadruplex structure; conditions: cited from earlier work
# nucleolin/8762NT = molecular target: T2, nucleolin/8762NT (Homo sapiens, UniProt P19338); assay: EMSA, interference with nucleolin/nucleic acid ligand interaction; format: binding; conditions: ligand 8762NT, read-out: IC50, concentration of Compound A-1 required to dissociate half of the complexed nucleic acid ligand and nucleolin protein
# T2 construct: without the N-terminal acidic stretches domain
# T2 sequence (P19338 284-710 limits assumed): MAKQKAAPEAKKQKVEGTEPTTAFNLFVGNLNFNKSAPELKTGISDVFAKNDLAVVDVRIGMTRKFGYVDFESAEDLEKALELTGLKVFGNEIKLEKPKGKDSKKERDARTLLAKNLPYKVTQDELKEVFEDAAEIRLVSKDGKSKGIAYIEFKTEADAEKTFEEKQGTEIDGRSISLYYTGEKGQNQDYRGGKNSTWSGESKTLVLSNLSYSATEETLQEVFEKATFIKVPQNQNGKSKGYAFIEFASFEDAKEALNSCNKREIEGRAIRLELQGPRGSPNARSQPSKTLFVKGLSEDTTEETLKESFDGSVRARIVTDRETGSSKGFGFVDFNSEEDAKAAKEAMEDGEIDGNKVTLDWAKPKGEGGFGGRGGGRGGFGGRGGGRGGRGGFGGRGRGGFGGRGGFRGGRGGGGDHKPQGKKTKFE
# Method: as §1
# (§3) The assay also was conducted using nucleic acid ligands derived from human ribosomal DNA. Sequences of these nucleic acids are shown in the preceding example. […] A “+” represents the weakest nucleolin affinity and least interference by compound A-1 and a “++++” represents the strongest nucleolin affinity and greatest interference by compound A-1.
# (§4) The assay also was conducted in a filter-binding format. […] The protein-quadruplex mixtures were incubated for 30 min at ambient temperature and filtered through mixed cellulose ester membrane filters (Millipore) with gentle suction. The filters were washed twice with […] of binding buffer, dried and OptiPhase ‘SuperMix’ scintillation cocktail (Perkin Elmer) was added to the wells. Radioactivity was assayed with MicroBeta scintillation counter (Perkin Elmer). Binding curves were constructed and apparent Kd's and Bmax's for the complexes were calculated using the GraphPad Prizm software program (GraphPad Software). In the following table, the nucleic acid ligand is designated in the first column using the nomenclature described herein; the second column provides the nucleotide sequence of the nucleic acid ligand; the third column is the conformation of the ligand as determined by circular dichroism (M is mixed, P is parallel, A is antiparallel, C is complex, SS is single-stranded and ND is not determined); the fourth column is the dissociation constant determined by the filter binding assay of nucleolin protein and the nucleic acid ligand; the fifth column is a Bmax constant determined by the filter binding assay, which is the percent of active nucleic acid ligand in each assay; and the sixth column presents the concentration of Compound A-1 required to dissociate half of the complexed nucleic acid ligand and nucleolin protein, as determined by the EMSA assay described above.
# nucleolin/7253NT = molecular target: T3, nucleolin/7253NT (Homo sapiens, UniProt P19338); assay: as above; format: binding; conditions: ligand 7253NT, read-out: IC50, concentration of Compound A-1 required to dissociate half of the complexed nucleic acid ligand and nucleolin protein
# T3 construct: without the N-terminal acidic stretches domain
# T3 sequence (P19338 284-710 limits assumed): as above
# Method: as §1, §3, §4
# nucleolin/6374NT = molecular target: T4, nucleolin/6374NT (Homo sapiens, UniProt P19338); assay: as above; format: binding; conditions: ligand 6374NT, read-out: IC50, concentration of Compound A-1 required to dissociate half of the complexed nucleic acid ligand and nucleolin protein
# T4 construct: without the N-terminal acidic stretches domain
# T4 sequence (P19338 284-710 limits assumed): as above
# Method: as §1, §3, §4
# MiaPaCa pancreatic cells = assay: Cell cycle progression (propidium iodide, flow cytometry); format: cell-based
# Method: as §2
# [3] = system: HCT-116 colon carcinoma cells (p53+); assay: as above; format: cell-based; conditions: HCT-116 (p53+)
# Method: as §2
# [4] = system: DAOY medulloblastoma cells (p53−); assay: as above; format: cell-based
# Method: as §2
# T1 sequence (P19338 284-710 limits assumed): as above
Structure (SMILES),interference with nucleolin/nucleic acid ligand interactions [1],effect on the cell cycle (cells),"effect on rRNA synthesis (rRNA synthesis, HCT-116)",preferred quadruplex structure in competition assays [2],IC50 (nucleolin/8762NT),IC50 (nucleolin/7253NT),IC50 (nucleolin/6374NT),cell cycle arrest (MiaPaCa pancreatic cells),cell cycle arrest [3],cell cycle arrest [4]
CN1CCCC1CCNC(=O)c1cn2c3c(c(N4CCC(c5cnccn5)C4)c(F)cc3c1=O)Oc1cc3ccccc3cc1-2 (stereo not shown) [Compound A-1],interfered with nucleolin/nucleic acid ligand interactions,little or no affect on the cell cycle,inhibited rRNA synthesis at two hours and four hours,interact preferentially with a mixed-parallel quadruplex structure,10 µM,10 µM,3 µM,,,
CC(=O)N1CCN(c2ccc3c(=O)c(C(=O)NCCN4CCCC4)c4n(C)c5ccccc5n4c3n2)CC1 [Compound B-1],,,,,,,,arrested primarily in the S phase with some G2 arrest as well,arrested in G1 and G2 phases of the cell cycle,arrested primarily in the S phase with some G2 arrest as well
